Source: patent publication US20190070128A1, “USE OF CANNABIDIVARIN IN THE TREATMENT OF AUTISM SPECTRUM DISORDER, ASSOCIATED DISORDERS AND SCHIZOPHRENIA” (GW Research Limited, priority 2016, published 2019)

How the values were obtained:
[1] = test system: Fmr1 KO mice; test: novel object recognition task in Fmr1 KO mice; format: in vivo, mouse; conditions: for discrimination index level: chronic
Description: Fmr1 KO mice and wild type mice were obtained and housed four per cage in a temperature of 21° C.±1° C. and humidity of 55%±10% controlled environment. Food and water were available ad libitum. All experiments were performed during the light phase of a 12 hour light/dark cycle (08:00 to 20:00). Animals were handled for one week before the start of experiments. All behavioural tests were performed by researchers blind to the different experimental groups.
On day one mice were habituated for 10 minutes to the empty V-maze in which the task was to be performed. On the second day the mice went back to the maze for 10 minutes which contained two identical objects at the end of each corridor in the V-maze.
The following day the mice were placed again in the same maze for a further 10 minutes but one of the familiar objects was replaced for a novel object. The total time spent exploring the novel and familiar object was recorded. A discrimination index was calculated as the difference between the time spent exploring the novel and familiar object divided by the total time exploring the two objects. A high discrimination index (0.3-0.5) is considered to reflect memory retention for the familiar object.
Adult mice (10-15 weeks old) were treated either acutely with one dose of CBDV on […] or were treated once daily with CBDV for 7 consecutive days. Mice were evaluated in the novel object recognition task after the first and sixth day of CBDV administration. Doses of CBDV used were 2, 10, 20, 100 and 200 mg/kg.

[2] = test system: Ube3am-/p+ (AS) mice; test: tail suspension test in Angelman syndrome mice; format: in vivo, mouse; conditions: 20 mg/kg i.p., vs AS vehicle
Description: Heterozygous mice with maternal deficiency of Ube3A (Ube3am−/p+) and wild type (Ube3am+/p+) were purchased from The Jackson Laboratory (Jackson code: B6.12957-Ube3a tm1Alb/J) and maintained in a C57BL/6 background.
Drugs were dissolved in 1:1:18 ethanol:cremophor:0.9% saline, for intraperitoneal (i.p.) administration. Drug treatment was performed daily for 35 days. CBDV was administered at 20 mg/kg.
Tail suspension: The tail suspension test assesses depressive-like behaviour in mice. Mice were individually suspended by the tail on a horizontal bar (50 cm from floor) using adhesive tape placed approximately 4 cm from the tip of the tail. The duration of immobility was recorded in seconds over a period of 6 minutes by a time recorder. Immobility time was defined as the absence of escape-oriented behaviour.

[3] = test system: PCP-treated rats; test: social interaction test in sub-chronic PCP treated rats; format: in vivo, rat
Description: Female hooded-Lister rats were used for this experiment. Rats were housed in groups of 5 under standard laboratory conditions under a 12 hr light: dark cycle, lights on at 0700 hr. Testing was carried out in the light phase.
Rats were randomly assigned to two treatment groups and treated with vehicle, n=20 (distilled water, i.p.) or Phencyclidine hydrochloride (PCP), n=100 (2 mg/kg, i.p. twice daily for 7-days). PCP was dissolved in distilled water. This was followed by a 7-day wash out period before the rats were tested following acute treatment with CBDV, risperidone or vehicle.
Risperidone (0.1 mg/kg) was dissolved in a minimum volume of acetic acid, made up to volume with distilled water and pH adjusted to 6 with 0.1M NaOH and administered via the i.p. route in a volume of 1 ml/kg, 60 min prior to testing.
CBDV at 2, 10 or 20 mg/kg was dissolved in 2:1:17 (Ethanol:Cremofor:Saline 0.9%) and administered via the i.p. route in a volume of 5 ml/kg, 60 min prior to testing.
The social interaction test is performed in an open-field comprising a square box made of Plexiglas (52×52×31 cm) placed 27 cm above the floor on a moveable trolley. The floor of the box is white with black gridlines forming 9 identical squares on it. All other walls are black. A video camera connected to a video recorder and monitor is positioned above the box. The object used for the test consists of a heavy structure made of metal that cannot be displaced by the animals.
The rats were habituated to the test environment and arena prior to the test day. Habituation consists of placing all rats from one cage together in the empty test arena for one hour for three days including the day before the test day.
Pairs of rats, weight matched (15-20 g) and unfamiliar to each other, receiving either no treatment (n=70 “conspecific” rats) or different treatments (PCP and Vehicle; n=10 “tested” rats or PCP+Drug; n=50 “tested” rats) were placed in the test arena together for 10 min and behaviour assessed as described below.
An inanimate object such as an unopened drinks can is also placed in the centre of the arena to measure any differences in interaction of the test animal with an unfamiliar animal as opposed to an unfamiliar object. After each 10 minute trial, the object and arena are cleaned with 10% alcohol in an attempt to remove traces of any olfactory cues. All testing is carried out under standard room illumination levels (70 cd/m2).
Behaviour in both trials was recorded on video for subsequent blind scoring. A behavioural scoring software program (Hindsight, Scientific programming services) is used to score the following parameters: • Investigative sniffing behaviour: sniffing the conspecific's snout or parts of the body including the anogenital region; • Following: rat moves after the conspecific i.e. a vehicle treated rat of the same species, around the arena; • Avoidances: actively turning away when approached by the conspecific animal; • Investigation of object: exploration of object placed in centre of the arena; and • Locomotor activity is recorded by counting the total number of sectors (i.e. lines) crossed by the test rat.

[4] = test system: animal models of seizure; conditions: in vivo; cited from earlier work

C=C(C)[C@@H]1CCC(C)=C[C@H]1c1c(O)cc(CCC)cc1O [CBDV, Cannabidivarin]
increase of discrimination index over vehicle treated mice ([1]; acute treatment, 2 mg/kg): not significant | discrimination index ([1]; acute treatment, any of the doses): no effect | discrimination index over vehicle treated knockout mice ([1]; chronic (once daily for 7 days), 20 and 100 mg/kg): statistically significant increase | discrimination index level ([1]; 20 mg/kg): over 0.3 | discrimination index level ([1]; 100 mg/kg): over 0.3 | duration of immobility time [2]: significantly reduced | PCP effects on social interaction (sniffing, following, avoiding) [3]: reverse these effects in a statistically significant manner | time spent avoiding the other rat ([3]; CBDV 20 mg/kg): reduce | time spent following the other rat ([3]; CBDV 20 mg/kg): increased | time spent sniffing the other rat ([3]; CBDV 10 and 20 mg/kg): significantly increased | effect in animal models of seizure [4]: effective
